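Compound exposure: 48 hours, 5 concentrations, 96-well plates. GI50: concentration for 50% inhibition of growth. Definition used: TGI = concentration required for complete inhibition of growth.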
How the values were obtained:
Assay in all cases: NCI-60 cell line screen, 48 h
HCC-2998 colon = tested on: HCC-2998 colon
RPMI-8226 leukemia = tested on: RPMI-8226 leukemia
SNB-75 CNS = tested on: SNB-75 CNS
HCT-15 colon = tested on: HCT-15 colon
SN12C renal = tested on: SN12C renal
HCT-116 colon = tested on: HCT-116 colon
SNB-19 CNS = tested on: SNB-19 CNS
NCI-H460 lung = tested on: NCI-H460 lung
RXF 393 renal = tested on: RXF 393 renal
MCF7 breast = tested on: MCF7 breast

Structure (SMILES)	TGI (HCC-2998 colon) [µM]	TGI (RPMI-8226 leukemia) [µM]	TGI (SNB-75 CNS) [µM]	TGI (HCT-15 colon) [µM]	TGI (SN12C renal) [µM]	TGI (HCT-116 colon) [µM]	TGI (SNB-19 CNS) [µM]	TGI (NCI-H460 lung) [µM]	TGI (RXF 393 renal) [µM]	GI50 (HCC-2998 colon) [µM]	GI50 (RPMI-8226 leukemia) [µM]	GI50 (SNB-75 CNS) [µM]	GI50 (HCT-15 colon) [nM]	GI50 (SN12C renal) [nM]	GI50 (SNB-19 CNS) [µM]	GI50 (NCI-H460 lung) [nM]	TGI (MCF7 breast) [µM]	GI50 (MCF7 breast) [µM]	GI50 (HCT-116 colon) [nM]	GI50 (RXF 393 renal) [nM]
C=C1C(=O)O[C@H](c2ccoc2)C[C@@H]1[C@@]1(C)CCCC2(C)C(=O)OCC21 (some centres undefined)	> 100	> 100	> 100	> 100	> 100	> 100	> 100	> 100	> 100											
CC(=O)OCC1OC(n2cccnc2=O)C(OC(C)=O)C1OC(C)=O (centres undefined)		> 100	> 100	> 100	> 100	> 100	> 100	> 100	> 100											
CCOC(=O)C1=C(C)NC(=O)NC1c1ccc(OC)cc1OC (centres undefined)	> 100	> 100	> 100	> 100	> 100	> 100	> 100	> 100	> 100											
CC1OC(n2cc(C(F)(F)F)c(=O)[nH]c2=O)C=CC1=O (centres undefined)	32.3	37.4	32.8	47	57.8	29.7	30.6	48.6												
COC(=O)C1=CC2C(=O)OC1C1C(=O)NC(=O)C21 (centres undefined)	> 100	> 100	> 100		> 100	> 100	> 100	> 100												
CC(=O)[CH-]C(=O)c1ccccc1.CC(=O)[CH-]C(=O)c1ccccc1.Cl.[O-]c1ccnc2ccccc12.[O-]c1ccnc2ccccc12.[Ti+4]	> 100	> 100	> 100	> 100	> 100		> 100	> 100		> 100	> 100	> 100	> 100000	> 100000	> 100	> 100000				
CC1(C)C(=O)OC(n2cc(F)c(=O)[nH]c2=O)C1=O (centres undefined)	> 100	> 100	> 100	> 100	> 100	> 100	> 100	> 100	> 100											
Cc1cccc(NC(=O)C(=O)C(C2OC(=O)c3ccccc32)[N+](=O)[O-])c1C (centres undefined)	27		19.7	19.7	18.9	21.3	35.1	18.7	20.7											
COc1cc(OCc2ccccc2)c2c(CCC(=O)O)cc(=O)oc2c1 (tested in a mixture with another compound)	> 100	> 100	> 100	> 100		> 100	> 100										61.7			
O=C(/C=C/c1ccc(Cl)c(Cl)c1)c1ccccc1Cl	25.6	> 29.1	27.5	9.97	30.8	9.95	25.1	27.2	31.6											
CN(C)c1ccc(/C=C(\C#N)c2cc3ccccc3[nH]2)cc1	> 100	4.91	4.59	> 100	> 100	> 100	> 100	> 100		6.59	0.63	1.31	509	2370	2.23	476	> 100	0.416	456	
c1ccc(C2=NOC3C4CCC(C4)C23)cc1 (centres undefined)	> 100	> 100	> 100	> 100	> 100	> 100	> 100	> 100												
Oc1ccc2c(=S)cc(-c3ccc(Br)cc3)oc2c1O	7.03	18.3	> 100	12.1	12.3	9.73	> 100	19	8.78	2.28	1.32	4.56	853	2610	2.95	973			2220	2510
CC(=O)OC1CCC2OOC1O2 (centres undefined)	> 100	> 100	> 100	> 100	> 100	> 100	> 100	> 100	> 100											
O=C1C=C(NCCO)c2nccc3c2c1nc1ccccc13		> 100	> 100	> 100	> 100	38.7	> 100	40.9	89.4		24.7	49.7	18600	18200	34	6040	> 100	20.5	11500	28200
C[C@]12CC[C@H](O[C@@H]3O[C@H](CO[C@@H]4O[C@H](CO)[C@@H](O)[C@H](O)[C@H]4O)[C@@H](O)[C@H](O)[C@H]3O)C[C@@H]1CC[C@@H]1[C@@H]2CC[C@]2(C)[C@@H](C3=CC(=O)OC3)CC[C@]12O	51	> 87.9	> 84.7	42.9	65.3	34.9	> 100	> 44.9	41.1											
Cc1ccc(S(=O)(=O)OCOS(=O)(=O)c2ccc(C)cc2)cc1	> 100	> 100		> 100	> 100	> 100	> 100	> 100	> 100											
O=C(Nc1ccncc1)C(=O)c1cn(S(=O)(=O)c2cccc(Cl)c2)c2ccccc12	> 100		23.2	> 100	> 100	86.8	> 100	> 100	21.2	13.9		5.16	3240	13000	27.5	20000	> 100	3.63	3100	4340
COc1ccc(Oc2nc3cc(N)cc(N)c3nc2-c2ccccc2)cc1		71.4		> 100	> 100	75.1	> 100	> 100	73.9				52100	50100	65	30600	> 100	48.2	28700	19900
CCOC(=O)C1=C(OC(OCC)C([Se]c2ccccc2)C(C)C)CCC1 (centres undefined)	> 100	38.5	62.5	29.4	25.1	26	> 100	31.4	21.9											

Structure (SMILES)	TGI (HCC-2998 colon) [µM]	TGI (RPMI-8226 leukemia) [µM]	TGI (SNB-75 CNS) [µM]	TGI (HCT-15 colon) [µM]	TGI (SN12C renal) [µM]	TGI (HCT-116 colon) [µM]	TGI (SNB-19 CNS) [µM]	TGI (NCI-H460 lung) [µM]	TGI (RXF 393 renal) [µM]	GI50 (HCC-2998 colon) [µM]	GI50 (RPMI-8226 leukemia) [µM]	GI50 (SNB-75 CNS) [µM]	GI50 (HCT-15 colon) [nM]	GI50 (SN12C renal) [nM]	GI50 (SNB-19 CNS) [µM]	GI50 (NCI-H460 lung) [nM]	TGI (MCF7 breast) [µM]	GI50 (MCF7 breast) [µM]	GI50 (HCT-116 colon) [nM]	GI50 (RXF 393 renal) [nM]
N#C/C(=C\c1c(O)cc(O)cc1O)C(N)=O	> 100	> 100	> 100	> 100	> 100	> 100	> 100	> 100	> 100											
NC(=O)c1c(NC(=O)c2cccs2)sc2c1CCC(=O)C2	48.9		9.05	17.9	> 100	13.7	> 100	> 100	8.49	4.13		1.7	1650	2950	3.49	2980	18.7	2.48	1700	2050
CCC12C=CCN(CCc3c([nH]c4ccccc34)/C=C\1)C2 (centres undefined)	> 100	> 100	> 100	> 100	> 100	> 100	> 100	> 100												
CN(C)NC(=O)/C(=C/c1ccc(Cl)cc1)NC(=O)c1ccccc1	> 100	> 100	> 100	> 100	> 100	> 100	> 100	> 100	> 100											
CC(=Nc1ccc(N(C)C)cc1)c1ccccc1	> 100		77.4	37.9	32.1	30.6	> 100	> 100	20.6								46.9			
O=C(NC1CC1)c1c(O)[nH]c(=S)[nH]c1=O		> 100	> 100	> 100	> 100	> 100	> 100	> 100												
COC(=O)c1c(O)ccc(O)c1C(C(C)=O)C(C)=O	> 100	> 100	> 100	> 100	> 100	> 100	> 100	> 100	> 100											
CCOC(=O)c1cc(=O)n(C)c(=O)n1C	> 100		> 100	> 100	> 100	> 100	> 100	> 100	> 100											
Cc1ccccc1NC(=O)Cc1nc2ccccc2s1	64.9		> 100		30.2	31	> 100	38.2	33											
Nc1cccc2c1-c1c(cccc1[N+](=O)[O-])C2=O	> 100	> 100	> 100	> 100	> 100	> 100	> 100	> 100	> 100											
Cn1[nH]cc2ccc3nc4ccccc4c(=O)c3c21	90.5	67.6	94.5	97.4	> 100	> 100	> 100	> 89.5	44.4											
C/C=C/C(=O)Oc1cccc2cccnc12	46.1	> 96.1	> 75.6	33.4	> 78.2	18.1	> 100	23	41.1											
COC(=O)[C@H](Cc1cn(C)cn1)NC(=O)[C@H](CC(=O)OCc1ccccc1)NC(=O)Nc1cc(C(F)(F)F)cc(C(F)(F)F)c1		17.5	24.1	> 100	17.3	40.7	28.5	28.7			4.24	11.8	17900	4790	13.8	13400	> 100	3.74	12500	
COc1cccc(Nc2ncnc3cc(NC(=O)CCl)ccc23)c1	3.7		2.28	1.62	2.44	2.47	3.22	3.08	2.94	1.81		0.379	353	1150	1.5	1320	3.19	0.789	1020	1460
CN(C)NC1=C([N+](=O)[O-])C=NN(c2ccccc2)C1	3.18		3.34	3.09	3.22	3.26	4.98	4.1	3.46											
COc1cc(-c2nn(-c3ccc(NC(=O)Nc4cc(C(F)(F)F)cc(C(F)(F)F)c4)cc3)cc2-c2ccncc2)ccc1Cl	5.38		5.35	4.01	4.21	3.39	3.88	3.88	3.58	2.21		1.99	1580	1710	1.8	1750	8.98	2.84	1650	1610
O=C(O)c1ccc2c(c1)C(=O)N(c1ccc(S(=O)(=O)c3ccc(N4C(=O)c5ccc(C(=O)O)cc5C4=O)cc3)cc1)C2=O		> 100	> 100	> 100	> 100	> 100	> 100	> 100	> 100											
O=c1nc2sc3ccccc3c(=O)n2[nH]1	> 100	> 100	> 100	> 100	> 100	> 100	> 100	> 100	> 100											
COc1ccc(CN2C(=O)[C@@H]3Cc4c(OC)c(C)c(OC)c(OC)c4[C@H](/C2=C\c2cc(OC)c(OC)c(C)c2OC)N3C(=O)OC(C)C)cc1	> 100	> 100	> 100		> 100	> 100	> 100	> 100	> 100											

From PubChem BioAssay (NCI)
